From patent publication US20250176599A1, “FLAVOR COMPOSITION AND FOOD AND BEVERAGE” (TAKASAGO INTERNATIONAL CORPORATION, priority 2021, published 2025)

Assays:
[1] = Overall conclusion of the sensory evaluation across aqueous solutions I to VI
Description: (§1) In ion-exchanged water, each degradation component was added to achieve the concentrations listed in Table 1, and aqueous solutions I to VI containing these degradation components were prepared.
(§2) For the aforementioned aqueous solutions containing degradation components, nootkatone was added at the concentrations listed in Table 2 to confirm the intensity of the off-flavor (masking effect) in each sample and the intensity of the masking component itself (the impact on the flavor of the food and/or beverage itself).
(§3) The test was conducted as follows. Eight experienced panelists were selected to conduct a sensory evaluation. The intensity of the off-flavor of the aqueous solution containing the degradation components derived from unsaturated fatty acids, without added masking components, was set as “Evaluation: 4.” The ion-exchanged water free of any degradation components was set as “Evaluation: 0.” The intensity of the off-flavor (masking effect) of each sample was then relatively evaluated according to the following evaluation criteria.
(§4) • Off-flavor is strongly sensed: 4 points • Off-flavor is sensed: 3 points • Off-flavor is slightly sensed: 2 points • Off-flavor is barely sensed: 1 point • Off-flavor is not sensed at all: 0 points
(§5) Also, the intensity of the masking components (impact on the flavor of the food and/or beverage itself) was absolutely evaluated according to the following evaluation criteria.
(§6) • Masking component is strongly sensed: 4 points • Masking component is sensed: 3 points • Masking component is slightly sensed: 2 points • Masking component is barely sensed: 1 point • Masking component is not sensed at all: 0 points

[2] = Sensory evaluation of aqueous solution II containing (E)-2-octenal 10 ppb: off-flavor intensity and masking component intensity; conditions: (E)-2-octenal 10 ppb, average score 0-4
Description: as §1, §2, §3, §4, §5, §6

[3] = Sensory evaluation of aqueous solution V containing 1-octen-3-ol 10 ppb: off-flavor intensity and masking component intensity; conditions: 1-octen-3-ol 10 ppb, average score 0-4
Description: as §1, §2, §3, §4, §5, §6

[4] = Sensory evaluation of aqueous solution I containing (E)-2-nonenal 1 ppb: off-flavor intensity and masking component intensity; conditions: (E)-2-nonenal 1 ppb, average score 0-4
Description: as §1, §2, §3, §4, §5, §6

[5] = Sensory evaluation of aqueous solution III containing 1-octen-3-one 1 ppb: off-flavor intensity and masking component intensity; conditions: 1-octen-3-one 1 ppb, average score 0-4
Description: as §1, §2, §3, §4, §5, §6

[6] = Sensory evaluation of aqueous solution IV containing 1,5-octadien-3-one 100 ppt: off-flavor intensity and masking component intensity; conditions: aqueous solution IV, 1,5-octadien-3-one 100 ppt, average score 0-4
Description: as §1, §2, §3, §4, §5, §6

[7] = Sensory evaluation of aqueous solution VI containing 1,5-octadien-3-ol 10 ppb: off-flavor intensity and masking component intensity; conditions: aqueous solution VI, 1,5-octadien-3-ol 10 ppb, average score 0-4
Description: as §1, §2, §3, §4, §5, §6

SMILES: CCCC(=O)C(C)=O [2,3-Hexanedione, 2,3-hexanedione]
- concentration that masks the off-flavor and does not affect the flavor of the food and/or beverage itself, lower limit [1]: ≥ 1 ppb
- concentration that masks the off-flavor and does not affect the flavor of the food and/or beverage itself, upper limit [1]: ≤ 1 ppm
- Off-Flavor Intensity ([2]; 1 ppb added): 3.0 points
- Off-Flavor Intensity ([2]; 1 ppm added): 2.0 points
- Off-Flavor Intensity ([2]; 5 ppb added): 3.0 points
- Off-Flavor Intensity ([2]; 5 ppm added): 1.4 points
- Off-Flavor Intensity ([2]; 10 ppb added): 2.6 points
- Off-Flavor Intensity ([2]; 10 ppm added): 1.0 points
- Off-Flavor Intensity ([2]; 50 ppb added): 2.5 points
- Off-Flavor Intensity ([2]; 100 ppb added): 2.0 points
- Off-Flavor Intensity ([2]; 500 ppb added): 2.0 points
- Off-Flavor Intensity ([3]; 1 ppb added): 3.1 points
- Off-Flavor Intensity ([3]; 1 ppm added): 1.5 points
- Off-Flavor Intensity ([3]; 5 ppb added): 2.9 points
- Off-Flavor Intensity ([3]; 5 ppm added): 0.9 points
- Off-Flavor Intensity ([3]; 10 ppb added): 2.5 points
- Off-Flavor Intensity ([3]; 10 ppm added): 0.4 points
- Off-Flavor Intensity ([3]; 50 ppb added): 2.3 points
- Off-Flavor Intensity ([3]; 100 ppb added): 2.0 points
- Off-Flavor Intensity ([3]; 500 ppb added): 1.8 points
- Off-Flavor Intensity ([4]; 1 ppb added): 3.4 points
- Off-Flavor Intensity ([4]; 1 ppm added): 1.6 points
- Off-Flavor Intensity ([4]; 5 ppb added): 3.4 points
- Off-Flavor Intensity ([4]; 5 ppm added): 1.1 points
- Off-Flavor Intensity ([4]; 10 ppb added): 3.3 points
- Off-Flavor Intensity ([4]; 10 ppm added): 0.9 points
- Off-Flavor Intensity ([4]; 50 ppb added): 2.6 points
- Off-Flavor Intensity ([4]; 100 ppb added): 2.4 points
- Off-Flavor Intensity ([4]; 500 ppb added): 2.0 points
- Off-Flavor Intensity ([5]; 1 ppb added): 4.0 points
- Off-Flavor Intensity ([5]; 1 ppm added): 2.3 points
- Off-Flavor Intensity ([5]; 5 ppb added): 3.9 points
- Off-Flavor Intensity ([5]; 5 ppm added): 1.8 points
- Off-Flavor Intensity ([5]; 10 ppb added): 3.6 points
- Off-Flavor Intensity ([5]; 10 ppm added): 1.5 points
- Off-Flavor Intensity ([5]; 50 ppb added): 3.4 points
- Off-Flavor Intensity ([5]; 100 ppb added): 3.0 points
- Off-Flavor Intensity ([5]; 500 ppb added): 2.5 points
- Off-Flavor Intensity ([6]; 1 ppb added): 3.6 points
- Off-Flavor Intensity ([6]; 1 ppm added): 2.1 points
- Off-Flavor Intensity ([6]; 5 ppb added): 3.5 points
- Off-Flavor Intensity ([6]; 5 ppm added): 1.5 points
- Off-Flavor Intensity ([6]; 10 ppb added): 3.4 points
- Off-Flavor Intensity ([6]; 10 ppm added): 0.8 points
- Off-Flavor Intensity ([6]; 50 ppb added): 2.9 points
- Off-Flavor Intensity ([6]; 100 ppb added): 2.9 points
- Off-Flavor Intensity ([6]; 500 ppb added): 2.6 points
- Off-Flavor Intensity ([7]; 1 ppb added): 3.4 points
- Off-Flavor Intensity ([7]; 1 ppm added): 1.6 points
- Off-Flavor Intensity ([7]; 5 ppb added): 3.4 points
- Off-Flavor Intensity ([7]; 5 ppm added): 1.0 points
- Off-Flavor Intensity ([7]; 10 ppb added): 3.0 points
- Off-Flavor Intensity ([7]; 10 ppm added): 0.5 points
- Off-Flavor Intensity ([7]; 50 ppb added): 2.8 points
- Off-Flavor Intensity ([7]; 100 ppb added): 2.6 points
- Off-Flavor Intensity ([7]; 500 ppb added): 2.1 points

SMILES: CC(=O)/C=C/C1C(C)=CCCC1(C)C (stereo not drawn) [α-Ionone, α-ionone]
- concentration that masks the off-flavor and does not affect the flavor of the food and/or beverage itself, lower limit [1]: ≥ 1 ppt
- concentration that masks the off-flavor and does not affect the flavor of the food and/or beverage itself, upper limit [1]: ≤ 100 ppb
- Off-Flavor Intensity ([2]; 0.1 ppt added): 3.1 points
- Off-Flavor Intensity ([2]; 1 ppb added): 1.9 points
- Off-Flavor Intensity ([2]; 1 ppm added): 0.1 points
- Off-Flavor Intensity ([2]; 1 ppt added): 2.9 points
- Off-Flavor Intensity ([2]; 10 ppb added): 1.5 points
- Off-Flavor Intensity ([2]; 10 ppm added): 0.0 points
- Off-Flavor Intensity ([2]; 10 ppt added): 2.5 points
- Off-Flavor Intensity ([2]; 100 ppb added): 0.8 points
- Off-Flavor Intensity ([2]; 100 ppt added): 2.4 points
- Off-Flavor Intensity ([3]; 0.1 ppt added): 3.1 points
- Off-Flavor Intensity ([3]; 1 ppb added): 1.9 points
- Off-Flavor Intensity ([3]; 1 ppm added): 0.5 points
- Off-Flavor Intensity ([3]; 1 ppt added): 3.0 points
- Off-Flavor Intensity ([3]; 10 ppb added): 1.5 points
- Off-Flavor Intensity ([3]; 10 ppm added): 0.0 points
- Off-Flavor Intensity ([3]; 10 ppt added): 2.5 points
- Off-Flavor Intensity ([3]; 100 ppb added): 1.0 points
- Off-Flavor Intensity ([3]; 100 ppt added): 2.3 points
- Off-Flavor Intensity ([4]; 0.1 ppt added): 3.9 points
- Off-Flavor Intensity ([4]; 1 ppb added): 2.3 points
- Off-Flavor Intensity ([4]; 1 ppm added): 0.6 points
- Off-Flavor Intensity ([4]; 1 ppt added): 3.6 points
- Off-Flavor Intensity ([4]; 10 ppb added): 1.8 points
- Off-Flavor Intensity ([4]; 10 ppm added): 0.3 points
- Off-Flavor Intensity ([4]; 10 ppt added): 3.1 points
- Off-Flavor Intensity ([4]; 100 ppb added): 1.3 points
- Off-Flavor Intensity ([4]; 100 ppt added): 2.6 points
- Off-Flavor Intensity ([5]; 0.1 ppt added): 3.6 points
- Off-Flavor Intensity ([5]; 1 ppb added): 2.4 points
- Off-Flavor Intensity ([5]; 1 ppm added): 0.8 points
- Off-Flavor Intensity ([5]; 1 ppt added): 3.4 points
- Off-Flavor Intensity ([5]; 10 ppb added): 1.9 points
- Off-Flavor Intensity ([5]; 10 ppm added): 0.1 points
- Off-Flavor Intensity ([5]; 10 ppt added): 3.0 points
- Off-Flavor Intensity ([5]; 100 ppb added): 1.6 points
- Off-Flavor Intensity ([5]; 100 ppt added): 2.8 points
- Off-Flavor Intensity ([6]; 0.1 ppt added): 3.5 points
- Off-Flavor Intensity ([6]; 1 ppb added): 2.4 points
- Off-Flavor Intensity ([6]; 1 ppm added): 1.0 points
- Off-Flavor Intensity ([6]; 1 ppt added): 3.4 points
- Off-Flavor Intensity ([6]; 10 ppb added): 2.1 points
- Off-Flavor Intensity ([6]; 10 ppm added): 0.1 points
- Off-Flavor Intensity ([6]; 10 ppt added): 3.1 points
- Off-Flavor Intensity ([6]; 100 ppb added): 1.6 points
- Off-Flavor Intensity ([6]; 100 ppt added): 2.9 points
- Off-Flavor Intensity ([7]; 0.1 ppt added): 3.1 points
- Off-Flavor Intensity ([7]; 1 ppb added): 1.8 points
- Off-Flavor Intensity ([7]; 1 ppm added): 0.1 points
- Off-Flavor Intensity ([7]; 1 ppt added): 2.9 points
- Off-Flavor Intensity ([7]; 10 ppb added): 1.5 points
- Off-Flavor Intensity ([7]; 10 ppm added): 0.0 points
- Off-Flavor Intensity ([7]; 10 ppt added): 2.5 points
- Off-Flavor Intensity ([7]; 100 ppb added): 0.8 points
- Off-Flavor Intensity ([7]; 100 ppt added): 2.0 points
